Reference: US7135466B2 (Kirin Beer Kabushiki Kaisha, priority 1999, dated 2006)
Read-outs that look alike come from different tables or passages of the source.

Experiments:
PDGF-Ra = target: T1, PDGF-Ra (Homo sapiens, UniProt P16234); assay: Inhibitory activity against PDGF-Ra phosphorylation by PDGF-AA stimulation using G292; format: cell-based; conditions: for IC50: > means inhibition at indicated concentration not more than 50%, < and << not less than 50%, read-out: PDGF (E) IC50; for inhibition at 0.1 µM: G292, read-out: PDGF (E) inhibition (%) at 100 nM
T1 construct: host or cells: G-292 human osteosarcoma cells
Summary of the method: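 Phosphorylated PDGF-Ra was measured colorimetrically (450 nm) after tyrosine-phosphorylated proteins from G-292 lysates were bound to PY-20-coated wells and detected with anti-PDGF-Ra antibody. Compound preincubation lasted 1 hr, followed by 50 ng/ml PDGF-AA for 5 min.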

c-kit = target: T2, c-kit (Homo sapiens, UniProt P10721); assay: Inhibitory activity against c-kit autophosphorylation (MO7e cells, h-SCF); format: cell-based; conditions: for inhibition at 1 µM: Mo7e, at 1000 nM; for IC50: MO7e cells, read-out: c-kit IC50
T2 construct: MO7e (human megakaryocytic leukemia cell line) which had been arrested for 20 hr; endogenous in cells; host or cells: MO7e human megakaryocytic leukemia cell line
Summary of the method: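 Ligand-induced c-kit tyrosine phosphorylation is measured in MO7e cells that were quiesced 20 hr and preincubated with compound for 1 hr prior to a 5 min pulse of 50 ng/ml human SCF. Phospho-c-kit is detected by anti-phosphotyrosine capture ELISA, A450.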

[1] = figure within parentheses in −( ) or >1000( )
[2] = figure within parentheses in >100( ), at 100 nM

T2 sequence (P10721 26-976): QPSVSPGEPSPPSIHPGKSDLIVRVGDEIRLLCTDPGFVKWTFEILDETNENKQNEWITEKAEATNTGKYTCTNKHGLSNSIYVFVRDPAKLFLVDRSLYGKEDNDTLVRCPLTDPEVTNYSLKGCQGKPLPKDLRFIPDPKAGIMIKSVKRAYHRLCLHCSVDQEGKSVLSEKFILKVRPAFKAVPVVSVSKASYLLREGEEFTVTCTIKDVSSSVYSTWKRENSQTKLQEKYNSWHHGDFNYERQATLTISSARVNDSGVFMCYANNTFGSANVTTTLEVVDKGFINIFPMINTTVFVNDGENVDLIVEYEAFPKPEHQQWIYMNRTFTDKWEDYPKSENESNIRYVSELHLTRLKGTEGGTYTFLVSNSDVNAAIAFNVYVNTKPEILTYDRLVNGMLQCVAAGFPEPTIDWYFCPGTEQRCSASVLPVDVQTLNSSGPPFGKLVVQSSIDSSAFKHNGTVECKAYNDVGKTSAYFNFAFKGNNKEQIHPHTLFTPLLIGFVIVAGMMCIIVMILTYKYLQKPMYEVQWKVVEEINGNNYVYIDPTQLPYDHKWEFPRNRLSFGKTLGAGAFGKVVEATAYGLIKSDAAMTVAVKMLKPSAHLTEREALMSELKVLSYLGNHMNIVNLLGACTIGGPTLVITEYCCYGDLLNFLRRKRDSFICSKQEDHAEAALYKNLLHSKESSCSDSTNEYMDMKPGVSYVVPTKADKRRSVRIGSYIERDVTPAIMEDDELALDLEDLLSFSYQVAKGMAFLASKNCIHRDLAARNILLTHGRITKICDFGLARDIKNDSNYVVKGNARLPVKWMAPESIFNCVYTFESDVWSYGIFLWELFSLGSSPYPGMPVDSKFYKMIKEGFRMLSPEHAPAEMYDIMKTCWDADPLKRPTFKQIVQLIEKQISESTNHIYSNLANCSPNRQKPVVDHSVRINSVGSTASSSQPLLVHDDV
T1 sequence (P16234 24-1089): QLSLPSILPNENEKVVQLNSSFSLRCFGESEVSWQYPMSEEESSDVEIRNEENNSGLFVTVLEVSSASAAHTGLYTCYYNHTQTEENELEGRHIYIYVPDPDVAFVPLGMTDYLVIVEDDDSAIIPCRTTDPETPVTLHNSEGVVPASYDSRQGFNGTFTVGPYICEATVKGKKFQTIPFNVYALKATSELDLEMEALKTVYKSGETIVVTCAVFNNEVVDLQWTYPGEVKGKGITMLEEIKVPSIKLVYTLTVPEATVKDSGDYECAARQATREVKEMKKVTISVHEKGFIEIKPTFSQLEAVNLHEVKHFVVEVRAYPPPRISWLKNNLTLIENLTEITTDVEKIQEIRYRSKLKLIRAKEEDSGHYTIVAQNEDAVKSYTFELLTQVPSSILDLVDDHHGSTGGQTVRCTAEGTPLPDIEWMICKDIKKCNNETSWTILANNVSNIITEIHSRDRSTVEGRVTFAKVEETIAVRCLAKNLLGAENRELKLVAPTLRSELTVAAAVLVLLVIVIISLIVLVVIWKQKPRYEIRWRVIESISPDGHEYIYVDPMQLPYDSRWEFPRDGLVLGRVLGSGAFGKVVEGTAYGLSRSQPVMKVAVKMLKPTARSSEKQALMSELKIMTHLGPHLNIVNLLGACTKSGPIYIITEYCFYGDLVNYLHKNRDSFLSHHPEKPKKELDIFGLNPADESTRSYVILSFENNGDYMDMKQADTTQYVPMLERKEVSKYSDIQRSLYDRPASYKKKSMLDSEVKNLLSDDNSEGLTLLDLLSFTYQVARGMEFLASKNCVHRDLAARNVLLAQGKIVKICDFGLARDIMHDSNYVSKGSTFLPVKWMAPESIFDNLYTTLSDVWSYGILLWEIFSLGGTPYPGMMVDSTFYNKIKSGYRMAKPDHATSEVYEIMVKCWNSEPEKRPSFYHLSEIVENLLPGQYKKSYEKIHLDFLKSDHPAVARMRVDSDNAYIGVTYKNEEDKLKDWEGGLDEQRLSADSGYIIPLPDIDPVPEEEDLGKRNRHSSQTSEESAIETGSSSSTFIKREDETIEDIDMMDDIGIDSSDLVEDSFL

Molecule | IC50 (PDGF-Ra) [nM] | IC50 (c-kit; 50 ng/ml h-SCF) [nM] | IC50 (PDGF-Ra; Pharmacological Test Example 1) [nM] | IC50 (c-kit; h-SCF 50 ng/ml) [nM] | further results
COc1cc2nccc(Oc3ccc(NC(=S)NC(=O)C4(C)CC4(Cl)Cl)cc3)c2cc1OC (centres unmarked) [Example 749, N-[(2,2-Dichloro-1-methylcyclopropyl)carbonyl]-N′-{4-[(6,7-dimethoxy-4-quinolyl)oxy]phenyl}thiourea] | 12 | – | – | – | inhibition at 1 µM (c-kit; [1]): 41%
COc1cc2nccc(Oc3cc(C)c(NC(=S)NCCCn4ccnc4)cc3C)c2cc1OC [Example 539] | > 100 | 415 | – | – | PDGF (E) inhibition (%) at 100 nM (PDGF-Ra; [2]): 45%
COc1cc2ncnc(Oc3ccc(NC(=O)NC4CCN(Cc5ccc(C(C)(C)C)cc5)C4)cc3)c2cc1OC (centres unmarked) [Example 583, N-{1-[4-(Tert-butyl)benzyl]tetrahydro-1H-3-pyrrolyl}-N′-{4-[(6,7-dimethoxy-4-quinazolinyl)oxy]phenyl}urea] | > 100 | – | – | – | inhibition at 0.1 µM (PDGF-Ra; [2]): 17%; inhibition at 1 µM (c-kit; [1]): 18%
COc1cc2nccc(Oc3ccc(NC(=S)NC(=O)CC4CCCCC4)cc3)c2cc1OC [Example 1023, N-(2-Cyclohexylacetyl)-N′-{4-[(6,7-dimethoxy-4-quinolyl)oxy]phenyl}thiourea] | 22 | – | – | – | IC50 (c-kit; h-SCF stimulation): 116 nM
COc1ccccc1COC(=O)Nc1ccc(Oc2ncnc3cc(OC)c(OC)cc23)cc1OC [Example 500, 2-Methoxybenzyl N-{4-[(6,7-dimethoxy-4-quinazolinyl)oxy]-2-methoxyphenyl}carbamate] | 14 | 199 | – | – | –
CCN(CC)CCNC(=O)Nc1ccc(Oc2ncnc3cc(OC)c(OC)cc23)cc1OC [Example 630, N-[2-(Diethylamino)ethyl]-N′-{4-[(6,7-dimethoxy-4-quinazolinyl)oxy]-2-methoxyphenyl}urea] | 36 | – | – | – | inhibition at 1 µM (c-kit; [1]): 23%
COc1cc2ncnc(Oc3ccc(NC(=O)OCCc4ccccc4)c(Cl)c3)c2cc1OC [Example 339, Phenethyl N-{2-chloro-4-[(6,7-dimethoxy-4-quinazolinyl)oxy]phenyl}carbamate] | – | – | 38 | 197 | –
C#CCC(CC)OC(=O)Nc1ccc(Oc2ccnc3cc(OC)c(OC)cc23)c(C)c1C (centres unmarked) [Example 410, 1-Ethyl-3-butynyl N-{4-[(6,7-dimethoxy-4-quinolyl)oxy]-2,3-dimethylphenyl}carbamate] | 12 | 79 | – | – | –
COc1cc2nccc(Oc3ccc(NC(=S)NC(=O)C(C)Oc4ccccc4Cl)cc3)c2cc1OC (centres unmarked) [Example 763, N-[2-(2-Chlorophenoxy)propanoyl]-N′-{4-[(6,7-dimethoxy-4-quinolyl)oxy]phenyl}thiourea] | 13 | – | – | – | inhibition at 1 µM (c-kit; [1]): 39%
COc1cccc(OC(=O)Nc2cc(C)c(Oc3ccnc4cc(OC)c(OC)cc34)cc2C)c1 [Example 290, 3-Methoxyphenyl N-{4-[(6,7-dimethoxy-4-quinolyl)oxy]-2,5-dimethylphenyl}carbamate] | – | – | 47 | 281 | –
COc1cc2nccc(Oc3ccc(NC(=S)NC(=O)c4cc(C)oc4C)cc3Cl)c2cc1OC [Example 699, N-{3-Chloro-4-[(6,7-dimethoxy-4-quinolyl)oxy]phenyl}-N′-[(2,5-dimethyl-3-furyl)carbonyl]thiourea] | 13 | – | – | – | inhibition at 1 µM (c-kit; [1]): 29%
COc1cc2ncnc(Oc3ccc(NC(=S)NC(=O)C4CCCC4)cc3)c2cc1OC [Example 1183, N-Cyclopentylcarbonyl-N′-{4-[(6,7-dimethoxy-4-quinazolinyl)oxy]phenyl}thiourea] | < 10 | – | – | – | IC50 (c-kit; h-SCF stimulation): 427 nM
4-(Dimethylamino)butyl N-{4-[(6,7-dimethoxy-4-quinazolinyl)oxy]phenyl}carbamate [Example 194] | – | – | 91 | 715 | –
COc1cc2nccc(Oc3ccc(NC(=O)OCc4cccc(Cl)c4)c(C)c3C)c2cc1OC [Example 236, 3-Chlorobenzyl N-{4-[(6,7-dimethoxy-4-quinolyl)oxy]-2,3-dimethylphenyl}carbamate] | – | – | 4 | 47 | –
COc1cc2nccc(Oc3ccc(NC(=O)NC4CCN(Cc5ccccc5)CC4)c(C)c3)c2cc1OC [Example 643, N-(1-Benzyl-4-piperidyl)-N′-{4-[(6,7-dimethoxy-4-quinolyl)oxy]-2-methylphenyl}urea] | > 100 | – | – | – | inhibition at 0.1 µM (PDGF-Ra; [2]): 40%; inhibition at 1 µM (c-kit; [1]): 2%
CCCC(CCN1CCOCC1)OC(=O)Nc1ccc(Oc2ccnc3cc(OC)c(OC)cc23)cc1 (centres unmarked) [Example 437, 1-(2-Morpholinoethyl)butyl N-{4-[(6,7-dimethoxy-4-quinolyl)oxy]phenyl}carbamate] | 48 | 250 | – | – | –
COc1cc2nccc(Oc3ccc(NC(=O)OCCOc4cccc(F)c4)cc3)c2cc1OC [Example 207, 2-(3-Fluorophenoxy)ethyl N-{4-[(6,7-dimethoxy-4-quinolyl)oxy]phenyl}carbamate] | – | – | 31 | 55 | –
COc1cc2nccc(Oc3ccc(OCCCOc4cccc(C)c4)cc3)c2cc1OC [Example 791, 6,7-Dimethoxy-4-{4-[3-(3-methylphenoxy)propoxy]phenoxy}quinoline] | 3 | 208 | – | – | –
COc1cc2ncnc(Oc3ccc(NC(=O)OCc4ccc(C(F)(F)F)cc4)c(Cl)c3)c2cc1OC [Example 25, 4-(Trifluoromethyl)benzyl N-{2-chloro-4-[(6,7-dimethoxy-4-quinazolinyl)oxy]phenyl}carbamate] | – | – | < 10 | 566 | –
COc1cc2nccc(Oc3ccc(NC(=S)NC(=O)c4ccc(-c5ccccc5)cc4)c(F)c3)c2cc1OC [Example 1125, N-(4-Phenylbenzoyl)-N′-{4-[(6,7-dimethoxy-4-quinolyl)oxy]-2-fluorophenyl}thiourea] | > 100 | – | – | – | inhibition at 0.1 µM (PDGF-Ra; figure in parentheses in >100( ), at 100 nM): 22%; inhibition at 1 µM (c-kit; figure in parentheses in −( )): 8%
COc1cc2nccc(Oc3ccc(NC(=S)NC(=O)N4c5ccccc5CCc5ccccc54)cc3Cl)c2cc1OC [Example 1054, N-{3-Chloro-4-[(6,7-dimethoxy-4-quinolyl)oxy]phenyl}-N′-[10,11-dihydro-5H-dibenzo(b,f)azepin-5-ylcarbonyl]thiourea] | 27 | – | – | – | inhibition at 1 µM (c-kit; figure in parentheses in −( )): 19%
CCCC(CCC)OC(=O)Nc1ccc(Oc2ncnc3cc(OC)c(OC)cc23)cc1 [Example 400, 1-Propylbutyl N-{4-[(6,7-dimethoxy-4-quinazolinyl)oxy]phenyl}carbamate] | < 10 | 671 | – | – | –
COc1cc2nccc(Oc3cc(C)c(NC(=O)OCCCSc4cc(C)ccc4C)cc3C)c2cc1OC [Example 171, 3-[(2,5-Dimethylphenyl)sulfanyl]propyl N-{4-[(6,7-dimethoxy-4-quinolyl)oxy]-2,5-dimethylphenyl}carbamate] | – | – | 22 | 83 | –
COc1cc2ncnc(Oc3ccc(NC(=O)NC4CCN(Cc5ccccc5)CC4)cc3)c2cc1OC [Example 591, N-{4-[(6,7-Dimethoxy-4-quinazolinyl)oxy]phenyl}-N′-[4-(N-benzyl)piperidinyl]urea] | 33 | 117 | – | – | –
CCC(CC)OC(=O)Nc1ccc(Oc2ccnc3cc(OC)c(OC)cc23)c(C)c1C [Example 360, 1-Ethylpropyl N-{4-[(6,7-dimethoxy-4-quinolyl)oxy]-2,3-dimethylphenyl}carbamate] | – | – | 16 | 189 | –
COc1cc2nccc(Oc3ccc(NC(=O)NC4CCN(Cc5ccccc5C)C4)cc3)c2cc1OC (centres unmarked) [Example 574, N-{4-[(6,7-Dimethoxy-4-quinolyl)oxy]phenyl}-N′-[1-(2-methylbenzyl)tetrahydro-1H-3-pyrrolyl]urea] | 45 | 147 | – | – | –
